Measured values from article PMC11125359 (Pharmaceuticals, 2024).
Read-outs that look alike come from different tables or passages of the source.

Experiments:
α-amylase = experiment: α-Amylase inhibition (anti-diabetic); assay type: biochemical; settings: equal concentrations (1000 µg/mL); mean ± SE
[1] = system: human colon cancer (Caco-2) cell line; experiment: cells; assay type: cell-based; settings: for Viability %, Caco-2, 1st concentration: Conc.: 5a 13.45, 5d 12.64, 5e 12.29, 5f 11.81, 7a 12.72, 7f 11.24, DOX 11.50; for Viability %, Caco-2, 2nd concentration: Conc.: 5a 26.91, 5d 25.27, 5e 24.58, 5f 23.63, 7a 25.43, 7f 22.48, DOX 23.00; for Viability %, Caco-2, 3rd concentration: Conc.: 5a 53.81, 5d 50.55, 5e 49.15, 5f 47.26, 7a 50.86, 7f 44.96, DOX 46.00; for Viability %, Caco-2, 4th concentration: Conc.: 5a 107.63, 5d 101.09, 5e 98.31, 5f 94.51, 7a 101.72, 7f 89.93, DOX 91.99; for Viability %, Caco-2, 5th concentration: Conc.: 5a 215.26, 5d 202.19, 5e 196.61, 5f 189.03, 7a 203.44, 7f 179.85, DOX 183.99; for IC50: Homo sapiens, Caco-2, 48 h, MTT, mean ± SE, read-out: Cytotoxic activity IC50, Colon (Caco-2); for Therapeutic Index (TI), Colon (Caco-2): IC50 on normal cells (WI-38)/IC50 on Caco-2
α-glucosidase = experiment: α-Glucosidase inhibition (anti-diabetic); assay type: biochemical; settings: equal concentrations (1000 µg/mL); mean ± SE
[2] = DPPH radical-scavenging activity; settings: read-out: DPPH (IC50); mean ± SE, three replicates
Experimental: In vitro biological activities
(§1) The 1,1-Diphenyl-2-picryl-hydrazyl (DPPH) radical scavenging activities were evaluated using the method described by Rahman et al. An antioxidant substance capable of donating a
(§2) hydrogen atom to a solution containing DPPH- can reduce the stable free radical, causing the solution
(§3) to change color from violet to pale yellow. The remaining DPPH- radical was quantified by
(§4) nm using a spectroscopic method. Two milliliters of a DPPH solution (100 µM) in ethanol were mixed
(§5) with 2 mL of the sample (at each concentration). The reaction mixture for each concentration was
(§6) thoroughly vortexed and then incubated in the dark at room temperature for 30 minutes. The
(§7) absorbance was then measured spectrophotometrically at 518 nm against a blank (ethanol). For the
(§8) control, 2 mL of ethanol was added instead of the sample and run simultaneously with the test.
(§9) Ascorbic acid was used at the same concentrations as a positive control. Percent inhibition of the
(§10) DPPH free radical was calculated. The median inhibitory concentration (IC 50) for each tested

[3] = target: acetylcholinesterase (AChE) (Homo sapiens, UniProt P22303); experiment: biochemical; settings: same concentration (1000 µg/mL); mean ± SE
[4] = target: bovine serum albumin (BSA) (Bos taurus, UniProt P02769); settings: equal concentrations (1000 µg/mL); mean ± SE
caspase-3 [5] = experiment: Caspase-3 ELISA in treated Caco-2 cells; assay type: cell-based, human; settings: DMSO control 97.06 ± 0.14
caspase-3 [6] = experiment: Caspase-3 ELISA in treated A549 cells; assay type: cell-based, human; settings: DMSO control 85.92 ± 0.12
[7] = Total antioxidant capacity (TAC), phosphomolybdenum method; settings: equal concentrations (1000 µg/mL); mean ± SE, three replicates
Experimental: (§11) All in vitro biological activities were assessed in the tested compounds at equal concentrations (1000 µg/mL). All assays were carried out in triplicate.
In vitro biological activities
(§12) The total antioxidant capacity (TAC) was determined by analyzing the green phosphate/Mo5+ complex at a wavelength (λ) of 695 nm, following the procedure described by Prieto
(§13) et al. Samples (at each concentration) were mixed with a reagent solution containing 0.3 N sulfuric
(§14) acid, 28 mM sodium phosphate, and 4 mM ammonium molybdate. Methanol (80%) was used in place
(§15) of the sample for the blank. The tubes were sealed and incubated in a boiling water bath for 90
(§16) minutes. After cooling to room temperature, the absorbance was measured at 695 nm against the
(§17) blank. Ascorbic acid was used at the same concentrations as a standard. The antioxidant capacity was
(§18) expressed as mg gallic acid equivalent per gram weight.
(§19) The iron reducing power was determined as µg/mL using the method proposed by Oyaizu
(§20) In brief, 1ml of the tested sample (at each concentration) was combined with 1mL of 200mM
(§21) sodium phosphate buffer (pH 6.6) and 1mL of 1% potassium ferricyanide. The mixture was then
(§22) incubated at 50°C for 20 minutes, followed by the addition of 1mL of trichloroacetic acid (10%). After
(§23) centrifugation at 2000rpm for 10 minutes, the upper layer solution (2.5 mL) was mixed with 2.5 mL of double deionized water and 1mL of fresh ferric chloride (0.1%). The absorbance was measured at
(§24) 700nm against a blank prepared without the sample. Ascorbic acid was used at the same
(§25) concentrations as a standard. A high absorbance at 700nm indicates a higher reducing power in the
as §1, §2, §3, §4, §5, §6, §7, §8, §9, §10
(§26) The procedure for the 2,2'-azinobis-(3-ethylbenzothiazoline-6-sulfonic acid) (ABTS) assay
(§27) potassium persulfate solution (2.4 mM). The working solution was prepared by mixing the two stock
(§28) solutions in equal quantities and allowing them to react at room temperature in a dark place for 14
(§29) hours. The solution was then diluted by mixing 1 mL of ABTS solution with 60 mL of methanol to
(§30) was prepared for each assay. The tested samples (at each concentration) were allowed to react with 1
(§31) mL of the ABTS solution, and the absorbance was taken at 734 nm after 7 minutes using a
(§32) spectrophotometer. The ABTS scavenging capacities of the samples were compared with that of
(§33) ascorbic acid (at the same concentrations).

[8] = system: human lung cancer (A549) cell line; experiment: Cytotoxic activity, MTT assay, lung (A549); settings: for Viability %, A549, 1st concentration: Conc.: 5a 13.45, 5d 12.64, 5e 12.29, 5f 11.81, 7a 12.72, 7f 11.24, DOX 11.50; for Viability %, A549, 2nd concentration: Conc.: 5a 26.91, 5d 25.27, 5e 24.58, 5f 23.63, 7a 25.43, 7f 22.48, DOX 23.00; for Viability %, A549, 3rd concentration: Conc.: 5a 53.81, 5d 50.55, 5e 49.15, 5f 47.26, 7a 50.86, 7f 44.96, DOX 46.00; for Viability %, A549, 4th concentration: Conc.: 5a 107.63, 5d 101.09, 5e 98.31, 5f 94.51, 7a 101.72, 7f 89.93, DOX 91.99; for Viability %, A549, 5th concentration: Conc.: 5a 215.26, 5d 202.19, 5e 196.61, 5f 189.03, 7a 203.44, 7f 179.85, DOX 183.99; for IC50: Homo sapiens, A549, 48 h, read-out: Cytotoxic activity IC50, Lung (A549)
Experimental: It will be assayed against human lung cancer (A549) and colon (Caco-2) cell line in
comparison with normal lung (WI-38) cell line using 3-(4,5-dimethythiazol-2-yl)-2,5-diphenyl
tetrazolium bromide (MTT) assay by determining the optical density (OD) at 570 nm according to the
The cells were dispensed in a 96-well sterile microplate (3
µL of each compound or doxorubicin (positive control, in DMSO) for 48 h in a serum free medium
prior to the MTT assay. Subsequently, the media were carefully removed, and 40 µL of MTT (2.5
mg/mL) was added to each well and then incubated for an additional 4 h. Purple formazan dye
crystals were solubilized by the addition of 200 µL of DMSO. The absorbance was measured at 570 nm using a SpectraMax Paradigm Multi-Mode microplate reader. The relative cell viability was
experiments were conducted in triplicate. Percent of the cell-growth inhibition (%) and the IC 50 was
calculated using IC 50 calculation software. The concentrations used for calculating the IC 50 depend on

[9] = system: proteinase enzyme (trypsin); experiment: Proteinase enzyme inhibition (anti-inflammatory); assay type: biochemical; settings: equal concentrations (1000 µg/mL); mean ± SE
Bcl-2 [10] = experiment: Bcl-2 ELISA in treated A549 cells; assay type: cell-based, human; settings: DMSO control 9.83 ± 0.05
[11] = Cytotoxic activity, MTT assay, normal lung (WI-38); assay type: cell-based; settings: human, WI-38 normal lung cells; for IC50 at 48 h: MTT, mean ± SE, read-out: Cytotoxic activity IC50, Normal Lung (WI-38)
[12] = Iron-reducing power (IRP); settings: equal concentrations (1000 µg/mL); mean ± SE, three replicates
Experimental: as §11
In vitro biological activities
as §12, §13, §14, §15, §16, §17, §18, §19, §20, §21, §22, §23, §24, §25, §1, §2, §3, §4, §5, §6, §7, §8, §9, §10, §26, §27, §28, §29, §30, §31, §32, §33

Bcl-2 [13] = experiment: Bcl-2 ELISA in treated Caco-2 cells; assay type: cell-based, human; settings: DMSO control 7.99 ± 0.08
[14] = ABTS radical scavenging assay; settings: equal concentrations (1000 µg/mL); mean ± SE
Experimental: as §11
In vitro biological activities
as §12, §13, §14, §15, §16, §17, §18, §19, §20, §21, §22, §23, §24, §25, §1, §2, §3, §4, §5, §6, §7, §8, §9, §10, §26, §27, §28, §29, §30, §31, §32, §33

[15] = Conc. as printed: 5a 53.81, 5d 50.55, 5e 49.15, 5f 47.26, 7a 50.86, 7f 44.96, DOX 46.00, read-out: Viability %, WI-38, 3rd concentration
[16] = Conc. as printed: 5a 107.63, 5d 101.09, 5e 98.31, 5f 94.51, 7a 101.72, 7f 89.93, DOX 91.99, read-out: Viability %, WI-38, 4th concentration
[17] = Conc.: 5a 13.45, 5d 12.64, 5e 12.29, 5f 11.81, 7a 12.72, 7f 11.24, DOX 11.50, read-out: Viability %, WI-38, 1st concentration
[18] = Conc.: 5a 26.91, 5d 25.27, 5e 24.58, 5f 23.63, 7a 25.43, 7f 22.48, DOX 23.00, read-out: Viability %, WI-38, 2nd concentration
[19] = Conc.: 5a 215.26, 5d 202.19, 5e 196.61, 5f 189.03, 7a 203.44, 7f 179.85, DOX 183.99, read-out: Viability %, WI-38, 5th concentration

bovine serum albumin (BSA), sequence (P02769 25-607): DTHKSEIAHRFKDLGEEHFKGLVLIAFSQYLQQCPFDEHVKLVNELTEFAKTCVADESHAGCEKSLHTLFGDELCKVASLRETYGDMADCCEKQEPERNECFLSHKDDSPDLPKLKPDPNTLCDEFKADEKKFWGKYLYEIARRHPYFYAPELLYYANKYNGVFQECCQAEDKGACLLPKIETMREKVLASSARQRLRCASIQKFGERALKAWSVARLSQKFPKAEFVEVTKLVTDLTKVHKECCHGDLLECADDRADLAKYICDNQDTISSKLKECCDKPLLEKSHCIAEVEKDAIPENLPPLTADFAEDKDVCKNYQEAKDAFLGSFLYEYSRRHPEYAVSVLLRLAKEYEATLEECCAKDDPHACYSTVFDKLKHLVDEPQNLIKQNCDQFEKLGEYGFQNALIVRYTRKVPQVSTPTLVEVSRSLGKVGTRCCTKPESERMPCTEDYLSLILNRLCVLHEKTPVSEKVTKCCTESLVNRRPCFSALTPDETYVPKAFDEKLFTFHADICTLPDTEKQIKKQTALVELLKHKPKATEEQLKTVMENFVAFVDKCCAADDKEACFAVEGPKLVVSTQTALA
acetylcholinesterase (AChE), sequence (P22303 32-614, species assumed): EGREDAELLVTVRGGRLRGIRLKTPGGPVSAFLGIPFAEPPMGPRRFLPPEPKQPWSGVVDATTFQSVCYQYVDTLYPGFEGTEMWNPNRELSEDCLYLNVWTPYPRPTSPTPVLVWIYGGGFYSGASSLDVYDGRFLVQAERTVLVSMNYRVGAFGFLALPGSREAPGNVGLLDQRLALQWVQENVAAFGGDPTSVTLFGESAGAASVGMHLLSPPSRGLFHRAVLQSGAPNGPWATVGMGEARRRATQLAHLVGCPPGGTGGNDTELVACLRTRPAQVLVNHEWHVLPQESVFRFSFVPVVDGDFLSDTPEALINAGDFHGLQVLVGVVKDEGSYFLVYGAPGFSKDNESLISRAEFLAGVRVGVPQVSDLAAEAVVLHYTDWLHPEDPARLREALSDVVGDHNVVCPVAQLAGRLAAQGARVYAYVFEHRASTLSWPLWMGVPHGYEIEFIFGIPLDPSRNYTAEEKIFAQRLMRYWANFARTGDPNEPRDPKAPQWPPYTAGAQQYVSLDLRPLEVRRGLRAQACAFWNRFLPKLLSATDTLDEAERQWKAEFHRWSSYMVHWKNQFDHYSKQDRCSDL

| Compound | Inhibition (%) α-Amylase (α-amylase) [%] | Viability %, Caco-2, 1st concentration [1] [%] | Viability %, Caco-2, 2nd concentration [1] [%] | Viability %, Caco-2, 3rd concentration [1] [%] | Viability %, Caco-2, 4th concentration [1] [%] | Viability %, Caco-2, 5th concentration [1] [%] | IC50 [1] [µM] | Therapeutic Index (TI), Colon (Caco-2) [1] | Inhibition (%) α-Glucosidase (α-glucosidase) [%] | IC50 [2] [µM] | inhibition at 1000 µg/mL [3] [%] | Inhibition (%) Protein Denaturation [4] [%] | Caspase-3 level, Colon (Caco-2) (caspase-3 [5]) [pg/mL] | Caspase-3 level, Lung (A549) (caspase-3 [6]) [pg/mL] | Total Antioxidant Capacity (TAC) [7] [mg Gallic Acid/g] | Viability %, A549, 1st concentration [8] [%] | Viability %, A549, 2nd concentration [8] [%] | Viability %, A549, 3rd concentration [8] [%] | Viability %, A549, 4th concentration [8] [%] | Viability %, A549, 5th concentration [8] [%] | also measured |
| --- | --- | --- | --- | --- | --- | --- | --- | --- | --- | --- | --- | --- | --- | --- | --- | --- | --- | --- | --- | --- | --- |
| COc1ccc(Nc2n[nH]c(/N=C/c3ccc(N4CCCCC4)cc3)c2C(=O)Nc2ccc(C)cc2)cc1 [5e] | 31.83 ± 0.05 | 70.21 | 50.65 | 40.04 | 26.27 | 11.43 | 40.99 ± 0.2 | 15.81 | 27.37 ± 0.05 | 23.71 ± 0.01 | 42.83 ± 0.03 | 27.33 ± 0.03 | 315.45 ± 0.46 | 214.81 ± 0.30 | 53.23 ± 0.20 | 90.96 | 79.91 | 48.51 | 37.08 | 18.60 | IC50 [8]: 47.74 ± 0.2 µM; Inhibition (%) Proteinase [9]: 23.76 ± 0.03%; Bcl-2 level, Lung (A549) (Bcl-2 [10]): 3.93 ± 0.02 ng/mL; viability at 48 h [11, 15]: 81%; viability at 48 h [11, 16]: 65.7%; viability at 48 h [11, 17]: 92.9%; viability at 48 h [11, 18]: 87%; viability at 48 h [11, 19]: 38.3%; IC50 at 48 h [11]: 648 ± 7.57 µM; Iron-Reducing Power (IRP) [12]: 34.91 ± 0.07 µg/mL; Bcl-2 level, Colon (Caco-2) (Bcl-2 [13]): 2.46 ± 0.02 ng/mL; ABTS (%) inhibition [14]: 76.87 ± 0.05% |
| COc1ccc(Nc2n[nH]c(N=Cc3c(C)n(C)n(-c4ccccc4)c3=O)c2C(=O)Nc2ccc(Cl)cc2)cc1 [7f] | 32.31 ± 0.05 | 81.68 | 73.16 | 54.13 | 31.97 | 24.59 | 49.01 ± 0.24 | 11.06 | 27.79 ± 0.05 | 21.37 ± 0.01 | 62.11 ± 0.04 | 27.75 ± 0.03 | 276.62 ± 0.41 | 244.88 ± 0.34 | 54.04 ± 0.20 | 96.21 | 86.06 | 59.66 | 45.23 | 18.95 | Inhibition (%) Acetylcholinesterase [3]: 62.00 ± 0.04%; IC50 [8]: 55.74 ± 0.24 µM; Inhibition (%) Proteinase [9]: 24.13 ± 0.03%; Bcl-2 level, Lung (A549) (Bcl-2 [10]): 3.45 ± 0.02 ng/mL; viability at 48 h [11, 15]: 79.3%; viability at 48 h [11, 16]: 73.3%; viability at 48 h [11, 17]: 95.2%; viability at 48 h [11, 18]: 87.2%; viability at 48 h [11, 19]: 59.2%; IC50 at 48 h [11]: 543 ± 8.52 µM; Iron-Reducing Power (IRP) [12]: 35.45 ± 0.07 µg/mL; Bcl-2 level, Colon (Caco-2) (Bcl-2 [13]): 2.80 ± 0.03 ng/mL; ABTS (%) inhibition [14]: 78.05 ± 0.05% |
| O=C(Nc1ccccc1)c1c(Nc2ccccc2)n[nH]c1N=Cc1ccc(N2CCCCC2)cc1 [5a] | 31.24 ± 0.05 | 82.93 | 74.41 | 55.38 | 33.22 | 25.84 | 60.29 ± 0.14 | 7.32 | 26.87 ± 0.05 | 26.43 ± 0.01 | 42.05 ± 0.03 | 26.83 ± 0.03 | 208.68 ± 0.31 | 184.74 ± 0.26 | 52.25 ± 0.19 | 97.46 | 87.31 | 60.91 | 46.48 | 20.20 | IC50 [8]: 68.84 ± 0.14 µM; Inhibition (%) Proteinase [9]: 23.33 ± 0.03%; Bcl-2 level, Lung (A549) (Bcl-2 [10]): 6.55 ± 0.03 ng/mL; viability at 48 h [11, 15]: 69.5%; viability at 48 h [11, 16]: 54.2%; viability at 48 h [11, 17]: 81.4%; viability at 48 h [11, 18]: 75.5%; viability at 48 h [11, 19]: 38.3%; IC50 at 48 h [11]: 442 ± 8.8 µM; Iron-Reducing Power (IRP) [12]: 34.27 ± 0.07 µg/mL; Bcl-2 level, Colon (Caco-2) (Bcl-2 [13]): 5.33 ± 0.05 ng/mL; ABTS (%) inhibition [14]: 75.46 ± 0.05% |
| COc1ccc(Nc2n[nH]c(N=Cc3ccc(N4CCCCC4)cc3)c2C(=O)Nc2ccc(Cl)cc2)cc1 [5f] | 31.77 ± 0.05 | 89.43 | 80.91 | 61.88 | 39.72 | 32.34 | 61.98 ± 0.12 | 7.95 | 27.33 ± 0.05 | 22.83 ± 0.01 | 42.76 ± 0.03 | 27.28 ± 0.03 | 266.92 ± 0.39 | 236.29 ± 0.33 | 53.14 ± 0.20 | 97.46 | 87.31 | 60.91 | 46.48 | 20.20 | IC50 [8]: 60.45 ± 0.12 µM; Inhibition (%) Proteinase [9]: 23.72 ± 0.03%; Bcl-2 level, Lung (A549) (Bcl-2 [10]): 3.57 ± 0.02 ng/mL; viability at 48 h [11, 15]: 76%; viability at 48 h [11, 16]: 60.7%; viability at 48 h [11, 17]: 87.9%; viability at 48 h [11, 18]: 82%; viability at 48 h [11, 19]: 44.8%; IC50 at 48 h [11]: 493 ± 9.88 µM; Iron-Reducing Power (IRP) [12]: 34.85 ± 0.07 µg/mL; Bcl-2 level, Colon (Caco-2) (Bcl-2 [13]): 2.91 ± 0.03 ng/mL; ABTS (%) inhibition [14]: 76.74 ± 0.05% |
| Cc1c(C=Nc2[nH]nc(Nc3ccccc3)c2C(=O)Nc2ccccc2)c(=O)n(-c2ccccc2)n1C [7a] | 31.30 ± 0.05 | 70.21 | 50.65 | 40.04 | 26.27 | 22.93 | 42.42 ± 0.18 | 17.35 | 26.91 ± 0.05 | 24.94 ± 0.01 | 42.12 ± 0.03 | 26.87 ± 0.03 | 363.98 ± 0.54 | 322.21 ± 0.45 | 52.34 ± 0.19 | 90.96 | 79.91 | 48.51 | 37.08 | 18.60 | IC50 [8]: 49.4 ± 0.18 µM; Inhibition (%) Proteinase [9]: 23.37 ± 0.03%; Bcl-2 level, Lung (A549) (Bcl-2 [10]): 2.62 ± 0.01 ng/mL; viability at 48 h [11, 15]: 82.7%; viability at 48 h [11, 16]: 76.8%; viability at 48 h [11, 17]: 98.7%; viability at 48 h [11, 18]: 90.7%; viability at 48 h [11, 19]: 62.7%; IC50 at 48 h [11]: 736 ± 7.95 µM; Iron-Reducing Power (IRP) [12]: 34.33 ± 0.07 µg/mL; Bcl-2 level, Colon (Caco-2) (Bcl-2 [13]): 2.13 ± 0.02 ng/mL; ABTS (%) inhibition [14]: 75.59 ± 0.05% |
